Target: T1, Gag-Pol polyprotein [588-1027]/[588-1147] (Human immunodeficiency virus 1, UniProt P04585)
T1 construct: 588-1027; 588-1147
Assay: HIV-1 RT Assay
Conditions: pH 8.2; 37 °C

Row | Structure (SMILES) | IC50 [nM]
1 | CC(=O)Nc1ccc2c(c1)C(C#CC1CC1)(C(F)(F)F)OC(=O)N2 (configuration not stated) | > 2000
2 | CC(=O)Nc1ccc2c(c1)C(C#CC(C)C)(C(F)(F)F)OC(=O)N2 (configuration not stated) | > 2000

— BindingDB's records for doi:10.1016/s0960-894x(99)00565-x (Dupont Pharmaceuticals, 1999)
